Among the test systems are SNB-75; 786-0; TK-10; RPMI-8226; SF-295; EKVX; COLO 205; NCI-H522; OVCAR-5; U-251; SK-OV-3; UO-31; LXFL 529; HCT-15; SF-539.
Experiment in all cases: DTP human tumour cell line panel, 48 h

SMILES strings stand for the structures.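 Cells were grown in 96-well plates and exposed to each compound for 48 hours at five concentrations; endpoints were interpolated linearly between bracketing concentrations, or set to the highest concentration if not reached. GI50 marks 50% less growth.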 Active and inactive are the calls of the source. Rule as the data show it: active = GI50 up to about 1.1 µM and inactive = higher. Where only a bound is given, the exact number is not on record here.

On to `COC(=O)/C(=N\NC(=O)C[N+](C)(C)C)C(C(=O)OC)C(=O)C(=O)Nc1ccccc1C(N)=O` (centres undefined), for which the GI50 in the experiment with SNB-75, in the experiment with 786-0, in the experiment with TK-10, with RPMI-8226, in the experiment on SF-295 and in the experiment with EKVX was > 100 µM (inactive) each time. Besides, the GI50 in the experiment with COLO 205, in the experiment with NCI-H522, in the experiment with OVCAR-5, with U-251, in the experiment with SK-OV-3 and with UO-31 was > 100 µM (inactive) throughout. Further, the GI50 was > 100 µM (inactive) in the experiment with LXFL 529, more than 100 µM in the experiment with HCT-15 and > 100 µM (inactive) with SF-539.
As to `CCN(CC)CCSc1c2ccccc2nc2cc(NCC(=O)Nc3ccccc3-c3ccccc3NC(=O)CNc3ccc4c(SCCN(CC)CC)c5ccccc5nc4c3)ccc12`, the GI50 in the experiment with SNB-75 was > 77.4 µM (inactive); in the experiment on 786-0 it was > 92.9 µM (inactive); in the experiment on TK-10, > 100 µM (inactive); in the experiment on RPMI-8226 it was 53.7 µM (inactive); with SF-295 it was > 100 µM (inactive); with EKVX, > 100 µM (inactive). Further, the GI50 with COLO 205 was > 35.2 µM (inactive); with NCI-H522 it was 74.6 µM (inactive); with OVCAR-5, > 100 µM (inactive); in the experiment on U-251, > 100 µM (inactive); in the experiment with SK-OV-3 it was > 100 µM (inactive); in the experiment on UO-31, > 100 µM (inactive). Besides, the results for the GI50 in the experiment on LXFL 529, with HCT-15 and in the experiment on SF-539 were > 91 µM (inactive), more than 100 µM and > 100 µM (inactive), respectively.
For the compound `N#CCCN(CCC#N)c1ccc(C(=O)NN)cc1`, the GI50 with SNB-75, in the experiment with 786-0, in the experiment with TK-10, in the experiment on RPMI-8226, with SF-295 and with EKVX was > 100 µM (inactive) throughout. In addition, the GI50 in the experiment on COLO 205, in the experiment on NCI-H522, in the experiment on OVCAR-5, with U-251, in the experiment with SK-OV-3 and with UO-31 was > 100 µM (inactive) throughout. Further, the GI50 is > 100 µM (inactive) in the experiment on LXFL 529, more than 100 µM in the experiment on HCT-15 and > 100 µM (inactive) in the experiment on SF-539.
For the compound `CCCCCCCCCCCC(=O)OC(COC(N)=O)COc1ccc(Cl)cc1` (centres undefined), the GI50 in the experiment with SNB-75 is 33.4 µM (inactive); in the experiment with 786-0, 35.8 µM (inactive); with TK-10 it was 30.6 µM (inactive); with RPMI-8226, 22.1 µM (inactive); in the experiment on SF-295, 20.3 µM (inactive); in the experiment with EKVX it was 30.1 µM (inactive). Moreover, the GI50 in the experiment on COLO 205 was 17 µM (inactive); in the experiment on NCI-H522, 17.1 µM (inactive); in the experiment with U-251, 25.8 µM (inactive); in the experiment with SK-OV-3, > 100 µM (inactive); in the experiment with UO-31, 32.9 µM (inactive); in the experiment on LXFL 529 it was 20.8 µM (inactive). For the same compound, the GI50 was 28 µM in the experiment with HCT-15 and 18.8 µM (inactive) with SF-539.
Turning to `CCCCCCCCCCCC(=O)OCC1OC(n2cc(F)c(=O)[nH]c2=O)C(NC(=O)OCc2ccccc2)C(OC(=O)CCCCCCCCCCC)C1O` (centres undefined), the GI50 in the experiment on SNB-75, with 786-0, in the experiment with TK-10, in the experiment with RPMI-8226, with SF-295 and with EKVX was > 100 µM (inactive) throughout. Besides, the GI50 in the experiment on COLO 205, in the experiment on NCI-H522, in the experiment on OVCAR-5, in the experiment on U-251, in the experiment with SK-OV-3 and in the experiment with UO-31 was > 100 µM (inactive) in each case. The GI50 is > 100 µM (inactive) with LXFL 529, more than 100 µM in the experiment on HCT-15 and > 100 µM (inactive) in the experiment with SF-539.

In general, GI50 refers to the concentration giving 50% growth inhibition.

The values above are taken from ChEMBL document CHEMBL1201862, “PubChem BioAssay data set” (2004).
